The values below come from US8372872B2, “Methods for concomitant treatment of theophylline and febuxostat” (Takeda Pharmaceuticals U.S.A., Inc., priority 2010, dated 2013).

One data set can be described thus: clinical. The settings on record: both, human, in vivo, po.
For data set [1] the following is noted: adults; cited from earlier work.
For data set [2] the following is noted: patients co-administered allopurinol and theophylline; cited from earlier work.
[3] abbreviates: febuxostat vs placebo regimen, in words.

With `Cc1nc(-c2ccc(OCC(C)C)c(C#N)c2)sc1C(=O)O` [Febuxostat], the “maximum observed theophylline concentration (Cmax) and exposure to theophylline (AUC), febuxostat vs placebo” value (in words) was “comparable”.

The term Tmax denotes the time from dosing to the highest level. As usually defined, the Vd/F is the volume of distribution divided by bioavailability. As a reminder, the half-life is the time in which the quantity being followed falls by half. Low values mean fast loss, high ones slow loss. Regarding `Cn1c(=O)c2[nH]cnc2n(C)c1=O` [Theophylline, 1,3-dimethyl-7H-purine-2,6-dione], under “both, human, in vivo”, the “point estimates for theophylline Cmax, AUC(0-tlqc) and AUC(0-inf)” value was roughly 100%. In addition, under setting [3], the “estimated mean T1/2, CL/F and Vz/F of theophylline, compared between regimens” value was “generally similar”; the “mean AUC(0-inf) of theophylline, compared between regimens” value is listed as “comparable”. In the data set “clinical”, the Tmax is 7 to 9 h, the Vd/F was determined as 58.2 L and the half-life is 9.69 h. The biological half-life result in data set [1] is “about 6 hours”.

Regarding `Oc1ncnc2[nH]ncc12` [allopurinol], in data set [2], the “decrease of theophylline clearance” value is 21%, the “increase of theophylline AUC” value is listed as “up to 27%” and the “increase of theophylline half-life” value is “approximately 25%”.
